Where a name gives a salt, the structure may show the parent alone. Non-standard residues stand in square brackets, D forms with d. Residues, ends and D or L forms follow the SMILES beside them. pGlu = O=C1CC[C@@H](C(=O)O)N1; Thz = O=C(O)[C@@H]1CSCN1
assay: in vitro; details: rat, gh3-tre-luc cells, AC50 (uM) modified / 1000

Structure (SMILES) | CC50 at 24 h [µM]
CC(C)C(=O)OCC(=O)[C@@]12O[C@H](C3CCCCC3)O[C@@H]1C[C@H]1[C@@H]3CCC4=CC(=O)C=C[C@]4(C)[C@H]3[C@@H](O)C[C@@]12C [Ciclesonide] | 17.7
C[C@H](Cc1ccc(O)c(O)c1)[C@@H](C)Cc1ccc(O)c(O)c1 [Nordihydroguaiaretic acid] | 8.42
C[C@H]1CC[C@]2(NC1)O[C@H]1C[C@H]3[C@@H]4CC[C@H]5C[C@@H](O)CC[C@]5(C)[C@H]4CC[C@]3(C)[C@H]1[C@@H]2C [Tomatidine hydrochloride] | 47
Cc1cc(C)cc(C)c1 [1,3,5-Trimethylbenzene] | > 90
CN[C@@]1(c2ccccc2Cl)CCCCC1=O [(+)-Ketamine] | > 50
C=Cc1ccccn1 [2-Vinylpyridine] | > 90
O=C(O)CCCCCCCC(=O)O [Nonanedioic acid] | > 90
CN1CC(=O)NC1=N [Creatinine] | > 50
O=P(O)(O)C(O)(Cc1cnc2ccccn12)P(=O)(O)O [Minodronic acid] | > 50
CN(C)[C@@H]1C(O)=C(C(=O)NCN2CCCC2)C(=O)[C@@]2(O)C(O)=C3C(=O)c4c(O)cccc4[C@@](C)(O)[C@H]3C[C@@H]12 [Rolitetracycline] | > 20
C=C(C)C(=O)OCCCCOC(=O)C(=C)C [Butane-1,4-diyl bis(2-methylprop-2-enoate)] | > 90
OCC1CC2CC1C1CCC(CO)C21 (stereo not shown) [Tricyclodecanedimethanol] | > 90
CCCCCO [1-Pentanol] | > 90
Cc1ccnc(NS(=O)(=O)c2ccc(N)cc2)n1 [Sulfamerazine] | > 20
CCCC(C)C(=O)OCC (stereo not shown) [Ethyl 2-methylpentanoate] | > 90
CCCCC1=NC2(CCCC2)C(=O)N1Cc1ccc(-c2ccccc2-c2nnn[nH]2)cc1 [Irbesartan] | > 50
NCCOCCN [2,2'-Oxybis(ethylamine)] | > 90
Cc1ccc(S(=O)(=O)O)c(C)c1 [Sodium m-xylene-4-sulfonate] | > 90
C=CC(=O)OCC [Ethyl acrylate] | > 90
c1ccc2c(c1)CCCC2 [Tetralin] | > 90
O=C1CCCCCCCCCCCN1 [Azacyclotridecan-2-one] | > 90
COCC(=O)N(c1c(C)cccc1C)C(C)C(=O)OC (stereo not shown) [Metalaxyl] | > 90

Structure (SMILES) | CC50 at 24 h [µM]
CNC(=N)NCCC[C@H](N)C(=O)O [Tilarginine acetate] | > 50
Cc1nccn1-c1ccc(Sc2cccc(C3(C(N)=O)CCOCC3)c2)cc1 [CJ-013610] | 42.6
CCC(=O)OCCOc1ccccc1 [Phenoxyethyl propionate] | > 90
CC(=O)N[C@@H](CC(C)C)C(=O)O [Acetyl-L-leucine] | > 50
CN(C)C(=O)Nc1ccccc1 [Fenuron] | > 90
Oc1cc(O)c(Cl)cc1Cl [4,6-Dichloro-1,3-benzenediol] | > 90
OCCC(F)(F)C(F)(F)C(F)(F)C(F)(F)C(F)(F)C(F)(F)C(F)(F)C(F)(F)F [8:2 Fluorotelomer alcohol] | > 90
CCC(=O)OCCc1ccccc1 [2-Phenylethyl propionate] | > 90
CC(C)(C)NC[C@H](O)COc1nsnc1N1CCOCC1 [(S)-Timolol] | > 50
NC[C@H]1O[C@H](O[C@H]2[C@H](O)[C@@H](O[C@H]3O[C@H](CO)[C@@H](O)[C@H](N)[C@H]3O)[C@H](N)C[C@@H]2N)[C@H](N)[C@@H](O)[C@@H]1O [Bekanamycin sulfate] | > 50
OCCCO [1,3-Propanediol] | > 200
CCCCNc1cc(C(=O)O)cc(S(N)(=O)=O)c1Oc1ccccc1 [Bumetanide] | > 20
CCN=C1C=CC(=C(c2ccc(N(CC)CC)cc2)c2ccc(N(CC)CC)cc2)c2ccccc21 [Basic Blue 7] | 0.714
N#CCc1ccc(Cl)cc1Cl [(2,4-Dichlorophenyl)acetonitrile] | > 90
NC(=O)c1ccc([N+](=O)[O-])cc1 [4-Nitrobenzamide] | > 90
Cc1ccc(N(CC2=NCCN2)c2cccc(O)c2)cc1 [Phentolamine] | 45.1
CC(=O)c1nccs1 [2-Acetylthiazole] | > 90
Oc1ccccc1Cl [2-Chlorophenol] | > 90
C[C@]12C=CC(=O)C=C1CC[C@@H]1[C@@H]2[C@@H](O)C[C@@]2(C)[C@H]1CC[C@]2(O)C(=O)CO [Prednisolone] | > 90
CCCCCCCCCCCCCCC(=O)O [Pentadecanoic acid] | > 90
Cc1cc2nc(N)sc2cc1C [2-Amino-5,6-dimethylbenzothiazole] | > 90
CO/N=C(\C(=O)N[C@@H]1C(=O)N2C(C(=O)OCOC(=O)C(C)(C)C)=C(C)CS[C@H]12)c1csc(N)n1 [Cefetamet pivoxil HCl] | > 50

Structure (SMILES) | CC50 at 24 h [µM]
COc1cc(Nc2c(C#N)cnc3cc(OCCCN4CCN(C)CC4)c(OC)cc23)c(Cl)cc1Cl [Bosutinib methanoate] | 8.85
O=C1C(c2[nH]c3ccccc3c2O)=Nc2ccccc21 [Indigo dye] | > 90
CCCCCCCCC(=O)NCc1ccc(O)c(OC)c1 [Nonivamide] | > 90
Clc1cccc(C(c2ccc3[nH]cnc3c2)n2ccnc2)c1 (stereo not shown) [Liarozole hydrochloride] | > 50
C#CC(C)N(C)C(=O)Nc1ccc(Cl)cc1 (stereo not shown) [Buturon] | > 90
COC(=O)C(C)(C)C [Methyl pivalate] | > 90
O=C1Nc2ccc(Cl)cc2[C@@](C#CC2CC2)(C(F)(F)F)O1 [Efavirenz] | 31.4
O=C1CC[C@@H](C(=O)N2CSC[C@H]2C(=O)O)N1 [Pidotimod] ([pGlu]-[Thz]-OH) | > 50
CC(C)COC(=O)COc1ccc(Cl)cc1Cl [2,4-D-isobutyl] | > 90
CC[C@H](C)[C@H]1O[C@]2(C=C[C@@H]1C)C[C@@H]1C[C@@H](C/C=C(\C)[C@@H](O[C@H]3C[C@H](OC)[C@@H](O[C@H]4C[C@H](OC)[C@H](NC(C)=O)[C@H](C)O4)[C@H](C)O3)[C@@H](C)/C=C/C=C3\CO[C@@H]4[C@H](O)C(C)=C[C@@H](C(=O)O1)[C@]34O)O2 [Eprinomectin B1a] | 7.24
Cc1cccc(C)c1 [m-Xylene] | > 90
CCC[C@@H]1C[C@@H](C(=O)N[C@@H]([C@H]2O[C@H](SC)[C@H](OP(=O)(O)O)[C@@H](O)[C@H]2O)[C@H](C)Cl)N(C)C1 [Clindamycin phosphate] | > 50
Nc1nccs1 [2-Aminothiazole] | > 90
C=COCCOCCOCCOC=C [3,6,9,12-Tetraoxatetradeca-1,13-diene] | > 90
CCOC(=O)C(C)Oc1ccc(Oc2nc3ccc(Cl)cc3o2)cc1 (stereo not shown) [Fenoxaprop-ethyl] | > 90
Cc1ccc(N(CCO)CCO)cc1 [2,2'-[(4-Methylphenyl)imino]diethanol] | > 90
Cc1ccc(C(C)C)c(O)c1 [Thymol] | > 90
C=C(C)C(=O)OCCCCCCCCCCCC [Dodecyl 2-methylacrylate] | > 90
CC(C)(O)C(=O)O [2-Hydroxyisobutyric acid] | > 90
Oc1ccc(CCNCCCCCCNCCc2ccccc2)cc1O [Dopexamine] | 37.1
C[C@H]1[C@H](NC(=O)/C(=N\OC(C)(C)C(=O)O)c2csc(N)n2)C(=O)N1S(=O)(=O)O [Aztreonam] | > 20

same assay, conditions: rat, gh3-tre-luc cells, AC50 (uM) modified / 1000, Tox21_110001=Tox21_110110; viability, 1 nM T3 present, 24 h

Structure (SMILES) | CC50 at 24 h [µM]
Clc1cccc(N2CCNCC2)c1 [1-(3-Chlorophenyl)piperazine] | > 50

same assay, conditions: rat, gh3-tre-luc cells, AC50 (uM) modified / 1000, Tox21_110001=Tox21_112402; viability, 1 nM T3 present, 24 h

Structure (SMILES) | CC50 at 24 h [µM]
CC(=O)OO [Peracetic acid] | > 50

same assay, conditions: rat, gh3-tre-luc cells, AC50 (uM) modified / 1000, Tox21_110001=Tox21_112832; viability, 1 nM T3 present, 24 h

Structure (SMILES) | CC50 at 24 h [µM]
CCC(=O)OC1(c2ccccc2)CCN(C)CC1 [1-Methyl-4-phenyl-4-propionoxypiperidine hydrochloride] | > 100

same assay, conditions: rat, gh3-tre-luc cells, AC50 (uM) modified / 1000, Tox21_110001=Tox21_112886; viability, 1 nM T3 present, 24 h

Structure (SMILES) | CC50 at 24 h [µM]
CN1CC[C@]23c4c5ccc(O)c4O[C@H]2[C@@H](O)CC[C@H]3[C@H]1C5 [Dihydromorphine] | > 90

same assay, conditions: rat, gh3-tre-luc cells, AC50 (uM) modified / 1000, Tox21_110001=Tox21_201575; viability, 1 nM T3 present, 24 h

Structure (SMILES) | CC50 at 24 h [µM]
COCCl [Chloromethyl methyl ether] | > 90

same assay, conditions: rat, gh3-tre-luc cells, AC50 (uM) modified / 1000, Tox21_110001=Tox21_300787; viability, 1 nM T3 present, 24 h

Structure (SMILES) | CC50 at 24 h [µM]
CC[C@H](C)[C@H]1O[C@]2(C=C[C@@H]1C)C[C@@H]1C[C@@H](C/C=C(\C)[C@@H](O[C@H]3C[C@H](OC)[C@@H](O[C@H]4C[C@H](OC)[C@@H](NC)[C@H](C)O4)[C@H](C)O3)[C@@H](C)/C=C/C=C3\CO[C@@H]4[C@H](O)C(C)=C[C@@H](C(=O)O1)[C@]34O)O2 [Emamectin benzoate] | 1.42

same assay, conditions: rat, gh3-tre-luc cells, AC50 (uM) modified / 1000, Tox21_110001=Tox21_301003; viability, 1 nM T3 present, 24 h

Structure (SMILES) | CC50 at 24 h [µM]
Cc1nc(N(C)C)nc(OC(=O)N(C)C)c1C [Pirimicarb] | > 90

same assay, conditions: rat, gh3-tre-luc cells, AC50 (uM) modified / 1000, Tox21_110001=Tox21_302342; viability, 1 nM T3 present, 24 h

Structure (SMILES) | CC50 at 24 h [µM]
Nc1ccc(N=Nc2ccc(-c3ccc(N=Nc4c(S(=O)(=O)O)cc5cc(S(=O)(=O)O)c(N=Nc6ccccc6)c(O)c5c4N)cc3)cc2)c(N)c1 [C.I. Direct Black 38] | > 60

same assay, conditions: rat, gh3-tre-luc cells, AC50 (uM) modified / 1000, Tox21_110001=Tox21_302939; viability, 1 nM T3 present, 24 h

Structure (SMILES) | CC50 at 24 h [µM]
COCCl [Chloromethyl methyl ether] | > 30

same assay, conditions: rat, gh3-tre-luc cells, AC50 (uM) modified / 1000, Tox21_110001=Tox21_303039; viability, 1 nM T3 present, 24 h

Structure (SMILES) | CC50 at 24 h [µM]
COc1ccc(N)cc1 [4-Methoxyaniline] | > 100

same assay, conditions: rat, gh3-tre-luc cells, AC50 (uM) modified / 1000, Tox21_110001=Tox21_400070; viability, 1 nM T3 present, 24 h

Structure (SMILES) | CC50 at 24 h [µM]
COc1cc(OC)c(OC)cc1C=O [2,4,5-Trimethoxybenzaldehyde] | > 90

Reference: publication PMC6792352, “Limited Chemical Structural Diversity Found to Modulate Thyroid Hormone Receptor in the Tox21 Chemical Library” (Environmental Health Perspectives, 2019)
